Read-outs that look alike come from different tables or passages of the source.
How the values were obtained:
PARG = PARG (Homo sapiens, UniProt Q86W56); assay: Biochemical assay (PARG, TFMU-ADPr substrate); conditions: PARG, TFMU-ADPr substrate
HCC1806 = assay: Cell viability assay (CellTiter-Glo); type: cell-based, Human; conditions: HCC1806, 7 days, CellTiter-Glo, read-out: IC50 (nM) in cell viability assay

PARG, sequence (Q86W56 whole entry): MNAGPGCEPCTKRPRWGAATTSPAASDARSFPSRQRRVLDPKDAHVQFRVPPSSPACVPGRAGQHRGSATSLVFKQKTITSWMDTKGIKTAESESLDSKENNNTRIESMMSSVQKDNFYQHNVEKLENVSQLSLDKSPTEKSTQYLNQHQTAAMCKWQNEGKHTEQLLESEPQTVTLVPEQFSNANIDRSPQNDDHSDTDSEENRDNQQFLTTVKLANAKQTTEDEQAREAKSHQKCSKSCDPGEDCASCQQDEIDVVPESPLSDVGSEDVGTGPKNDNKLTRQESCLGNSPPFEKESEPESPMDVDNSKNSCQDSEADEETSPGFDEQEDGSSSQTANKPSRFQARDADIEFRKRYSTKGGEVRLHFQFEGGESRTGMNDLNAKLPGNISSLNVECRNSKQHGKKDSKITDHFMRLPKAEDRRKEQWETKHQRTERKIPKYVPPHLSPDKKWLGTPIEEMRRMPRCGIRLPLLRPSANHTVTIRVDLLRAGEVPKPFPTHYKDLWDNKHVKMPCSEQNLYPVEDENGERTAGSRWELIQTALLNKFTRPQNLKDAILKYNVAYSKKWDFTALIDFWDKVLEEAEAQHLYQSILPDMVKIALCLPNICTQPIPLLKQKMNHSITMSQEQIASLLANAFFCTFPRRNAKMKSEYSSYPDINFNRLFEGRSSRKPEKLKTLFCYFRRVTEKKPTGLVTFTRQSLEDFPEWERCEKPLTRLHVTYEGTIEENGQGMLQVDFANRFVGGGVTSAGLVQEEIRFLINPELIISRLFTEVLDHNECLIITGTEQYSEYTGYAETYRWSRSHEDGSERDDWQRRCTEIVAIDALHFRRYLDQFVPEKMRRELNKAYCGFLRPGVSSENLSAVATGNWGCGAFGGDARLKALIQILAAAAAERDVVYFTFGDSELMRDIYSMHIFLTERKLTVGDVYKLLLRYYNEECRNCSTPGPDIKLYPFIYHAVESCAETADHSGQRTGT

IC50 (PARG) | IC50 (HCC1806; Homo sapiens, HCC1806, 168 h) | Compound | IC50 (HCC1806)
0.68 nM | 241 nM | CN1CC(C)(C(=O)N2CCN(c3cc(S(=O)(=O)NC4(C)CC4)cn4c(-c5nnc(C(F)(F)F)s5)ncc34)CC2)C1 [Example 314, 8-(4-(1,3-dimethylazetidine-3-carbonyl)piperazin-1-yl)-N-(1-methylcyclopropyl)-3-(5-(trifluoromethyl)-1,3,4-thiadiazol-2-yl)imidazo[1,5-a]pyridine-6-sulfonamide] | 
11 nM | 132 nM | [2H]C([2H])([2H])OCC1CN(c2cc(S(=O)(=O)NC3(C)COC3)cn3c(-c4nnc(C(F)F)s4)ncc23)CCN1 (centres unmarked) [Example 392, 3-(5-(difluoromethyl)-1,3,4-thiadiazol-2-yl)-8-(3-((methoxy-d3)methyl)piperazin-1-yl)-N-(3-methyloxetan-3-yl)imidazo[1,5-a]pyridine-6-sulfonamide] | 
15.8 nM | 261 nM | COCC1CN(c2cc(S(=O)(=O)NC3(C)COC3)cn3c(-c4nnc(C(F)(F)F)s4)ncc23)CCN1 (centres unmarked) [Example 358, 8-(3-(methoxymethyl)piperazin-1-yl)-N-(3-methyloxetan-3-yl)-3-(5-(trifluoromethyl)-1,3,4-thiadiazol-2-yl)imidazo[1,5-a]pyridine-6-sulfonamide] | 
1.15 nM | 18 nM | C[C@H]1CN(c2cc(S(=O)(=O)NC3(C)COC3)cn3c(-c4nnc(C(F)(F)F)s4)ncc23)C[C@H](C)N1 [Example 184, 8-((3S,5S)-3,5-dimethylpiperazin-1-yl)-N-(3-methyloxetan-3-yl)-3-(5-(trifluoromethyl)-1,3,4-thiadiazol-2-yl)imidazo[1,5-a]pyridine-6-sulfonamide] | 

More lines, now with the values behind:

Compound | IC50 (PARG) | IC50 (HCC1806; Homo sapiens, HCC1806, 168 h) | IC50 (HCC1806)
CN1CC[C@@H]1C(=O)N1CCN(c2cc(S(=O)(=O)NC3(C)CC3)cn3c(-c4nnc(C(F)F)s4)ncc23)CC1 [Example 309, (R)-3-(5-(difluoromethyl)-1,3,4-thiadiazol-2-yl)-8-(4-(1-methylazetidine-2-carbonyl)piperazin-1-yl)-N-(1-methylcyclopropyl)imidazo[1,5-a]pyridine-6-sulfonamide] | 1.03 nM | 570 nM | 
N-(1-cyanocyclopropyl)-8-(4-(oxetane-3-carbonyl)piperazin-1-yl)-3-(5-(trifluoromethyl)-1,3,4-thiadiazol-2-yl)imidazo[1,5-a]pyridine-6-sulfonamide [Example 294] | 12 nM |  | 110 nM
CC1(NS(=O)(=O)c2cc(N3CCN(C(=O)c4c[nH]cn4)CC3)c3cnc(-c4nnc(C(F)F)s4)n3c2)CC1 [Example 340, 8-(4-(1H-imidazole-4-carbonyl)piperazin-1-yl)-3-(5-(difluoromethyl)-1,3,4-thiadiazol-2-yl)-N-(1-methylcyclopropyl)imidazo[1,5-a]pyridine-6-sulfonamide] | 2.15 nM | 1580 nM | 
CC1(NS(=O)(=O)c2cc(N3CCN(C(=O)C(O)C(F)(F)F)CC3)c3cnc(-c4nnc(C(F)(F)F)s4)n3c2)CC1 (centres unmarked) [Example 282, N-(1-methylcyclopropyl)-8-(4-(3,3,3-trifluoro-2-hydroxypropanoyl)piperazin-1-yl)-3-(5-(trifluoromethyl)-1,3,4-thiadiazol-2-yl)imidazo[1,5-a]pyridine-6-sulfonamide] | 20 nM | 84.3 nM | 
COC1CN(c2cc(S(=O)(=O)NC3(C)CC3)cn3c(-c4nnc(C(F)F)s4)ncc23)CCC1O (centres unmarked) [Example 348, 3-(5-(difluoromethyl)-1,3,4-thiadiazol-2-yl)-8-(4-hydroxy-3-methoxypiperidin-1-yl)-N-(1-methylcyclopropyl)imidazo[1,5-a]pyridine-6-sulfonamide] | 1.99 nM | 257 nM | 
CN(C)C(=O)C1CCN(c2cc(S(=O)(=O)NC3(C#N)CC3)cn3c(-c4nnc(C(F)F)s4)ncc23)CC1 [Example 212, 1-(6-(N-(1-cyanocyclopropyl)sulfamoyl)-3-(5-(difluoromethyl)-1,3,4-thiadiazol-2-yl)imidazo[1,5-a]pyridin-8-yl)-N,N-dimethylpiperidine-4-carboxamide] | 110 nM | 3000 nM | 

From patent publication US20260258035A1, “FIVE-MEMBERED AND SIX-MEMBERED NITROGEN-CONTAINING COMPOUND, AND INTERMEDIATE, PREPARATION METHOD AND USE THEREOF” (HANGZHOU SYNRX THERAPEUTICS BIOMEDICAL TECHNOLOGY CO., LTD., priority 2022, published 2026)
